What was measured:
Format in all cases: in vivo
[1] = tested on: oat, wild (wild oat, Avena fatua); experiment: Test C greenhouse herbicide test, postemergence
Procedure, shortened: (§1)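 Visual injury scores (0–100, where 100 means complete control) were assigned 13 to 15 d after postemergence application, by comparison with untreated plants. Treated seedlings stood 2 to 18 cm tall, at the 1- to 4-leaf stage.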

[2] = tested on: kochia (Kochia scoparia); experiment: Test C greenhouse herbicide test, postemergence
Procedure, shortened: as §1

[3] = tested on: crabgrass, large (large crabgrass, Digitaria sanguinalis); experiment: Test C greenhouse herbicide test, pre- and postemergence
Procedure, shortened: (§2)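 Each species was treated both before emergence, in a loam–sand soil mix, and after emergence, as 1- to 4-leaf seedlings in peat-based potting medium. Plants stayed in the greenhouse 13 to 15 d, then were scored from 0 (no effect) to 100 (complete control) relative to controls.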

[4] = tested on: waterhemp (common waterhemp, Amaranthus rudis); experiment: as above
Procedure, shortened: as §2

[5] = tested on: johnsongrass (Sorghum halepense); experiment: as above
Procedure, shortened: as §2

[6] = tested on: ragweed (common ragweed, Ambrosia elatior); experiment: as above
Procedure, shortened: as §2

[7] = tested on: velvetleaf (Abutilon theophrasti); experiment: as above
Procedure, shortened: as §2

[8] = tested on: pigweed (Amaranthus retroflexus); experiment: as above
Procedure, shortened: as §2

[9] = tested on: foxtail, giant (giant foxtail, Setaria faberii); experiment: as above
Procedure, shortened: as §2

[10] = tested on: morningglory (Ipomoea coccinea); experiment: as above
Procedure, shortened: as §2

[11] = tested on: blackgrass (Alopecurus myosuroides); experiment: as above
Procedure, shortened: as §2

[12] = tested on: ryegrass, Italian (Italian ryegrass, Lolium multiflorum); experiment: as above
Procedure, shortened: as §2

[13] = tested on: soybean (Glycine max); experiment: as above
Procedure, shortened: as §2

[14] = tested on: lambsquarters (Chenopodium album); experiment: as above
Procedure, shortened: as §2

[15] = tested on: corn (Zea mays); experiment: as above
Procedure, shortened: as §2

[16] = tested on: oilseed rape (Brassica napus); experiment: as above
Procedure, shortened: as §2

[17] = Postemergence, 31 g ai/ha, 0 to 100 scale (0 no effect, 100 complete control)
[18] = Postemergence, 125 g ai/ha, scale 0 to 100, 0 is no effect, 100 is complete control
[19] = Postemergence, 250 g ai/ha, scale 0 to 100, 0 no effect, 100 complete control, 13 to 15 d
[20] = postemergence, 62 g ai/ha, scale 0 to 100, 0 no effect, 100 complete control
[21] = Preemergence, 31 g ai/ha, scale 0 to 100, 0 is no effect, 100 is complete control
[22] = Preemergence, 62 g ai/ha, scale 0 to 100, 0 is no effect, 100 is complete control
[23] = Preemergence, 125 g ai/ha, scale 0 to 100, 0 is no effect, 100 is complete control
[24] = Preemergence, 250 g ai/ha, scale 0 to 100 (0 no effect, 100 complete control)

SMILES: Cc1ccc2ccc(C)c(-c3c(O)c(C)nn(C)c3=O)c2c1 [Compound 60]
- Oat, Wild plant response rating [1, 17]: 85
- Plant response rating, Oat, Wild [1, 18]: 95
- Plant response rating, Oat, Wild [1, 19]: 95
- Oat, Wild plant response rating [1, 20]: 95
- Kochia plant response rating [2, 17]: 90
- Plant response rating, Kochia [2, 18]: 100
- Plant response rating, Kochia [2, 19]: 100
- Kochia plant response rating [2, 20]: 90
- Crabgrass, Large plant response rating [3, 17]: 15
- Plant response rating, Crabgrass, Large [3, 18]: 50
- Plant response rating, Crabgrass, Large [3, 19]: 65
- Plant response rating, Crabgrass, Large [3, 21]: 20
- Plant response rating, Crabgrass, Large [3, 22]: 75
- Plant response rating, Crabgrass, Large [3, 23]: 85
- Crabgrass, Large plant response rating [3, 24]: 95
- Crabgrass, Large plant response rating [3, 20]: 35
- Waterhemp plant response rating [4, 17]: 65
- Plant response rating, Waterhemp [4, 18]: 98
- Plant response rating, Waterhemp [4, 19]: 98
- Plant response rating, Waterhemp [4, 21]: 100
- Plant response rating, Waterhemp [4, 22]: 100
- Plant response rating, Waterhemp [4, 23]: 100
- Waterhemp plant response rating [4, 24]: 100
- Waterhemp plant response rating [4, 20]: 90
- Johnsongrass plant response rating [5, 17]: 5
- Plant response rating, Johnsongrass [5, 18]: 55
- Plant response rating, Johnsongrass [5, 19]: 45
- Plant response rating, Johnsongrass [5, 21]: 5
- Plant response rating, Johnsongrass [5, 22]: 20
- Plant response rating, Johnsongrass [5, 23]: 40
- Johnsongrass plant response rating [5, 24]: 60
- Johnsongrass plant response rating [5, 20]: 35
- Ragweed plant response rating [6, 17]: 85
- Plant response rating, Ragweed [6, 18]: 98
- Plant response rating, Ragweed [6, 19]: 100
- Plant response rating, Ragweed [6, 21]: 80
- Plant response rating, Ragweed [6, 22]: 90
- Plant response rating, Ragweed [6, 23]: 95
- Ragweed plant response rating [6, 24]: 95
- Ragweed plant response rating [6, 20]: 90
- Velvetleaf plant response rating [7, 17]: 40
- Plant response rating, Velvetleaf [7, 18]: 90
- Plant response rating, Velvetleaf [7, 19]: 95
- Plant response rating, Velvetleaf [7, 21]: 75
- Plant response rating, Velvetleaf [7, 22]: 85
- Plant response rating, Velvetleaf [7, 23]: 95
- Velvetleaf plant response rating [7, 24]: 98
- Velvetleaf plant response rating [7, 20]: 85
- Pigweed plant response rating [8, 17]: 85
- Plant response rating, Pigweed [8, 18]: 95
- Plant response rating, Pigweed [8, 19]: 98
- Plant response rating, Pigweed [8, 21]: 100
- Plant response rating, Pigweed [8, 22]: 100
- Plant response rating, Pigweed [8, 23]: 100
- Pigweed plant response rating [8, 24]: 100
- Pigweed plant response rating [8, 20]: 85
- Foxtail, Giant plant response rating [9, 17]: 45
- Plant response rating, Foxtail, Giant [9, 18]: 70
- Plant response rating, Foxtail, Giant [9, 19]: 90
- Plant response rating, Foxtail, Giant [9, 21]: 75
- Plant response rating, Foxtail, Giant [9, 22]: 85
- Plant response rating, Foxtail, Giant [9, 23]: 100
- Foxtail, Giant plant response rating [9, 24]: 100
- Foxtail, Giant plant response rating [9, 20]: 60
- Morningglory plant response rating [10, 17]: 90
- Plant response rating, Morningglory [10, 18]: 100
- Plant response rating, Morningglory [10, 19]: 100
- Plant response rating, Morningglory [10, 21]: 85
- Plant response rating, Morningglory [10, 22]: 98
- Plant response rating, Morningglory [10, 23]: 98
- Morningglory plant response rating [10, 24]: 100
- Morningglory plant response rating [10, 20]: 98
- Blackgrass plant response rating [11, 17]: 50
- Plant response rating, Blackgrass [11, 18]: 85
- Plant response rating, Blackgrass [11, 19]: 90
- Plant response rating, Blackgrass [11, 21]: 90
- Plant response rating, Blackgrass [11, 22]: 90
- Plant response rating, Blackgrass [11, 23]: 90
- Blackgrass plant response rating [11, 24]: 90
- Blackgrass plant response rating [11, 20]: 60
- Ryegrass, Italian plant response rating [12, 17]: 90
- Plant response rating, Ryegrass, Italian [12, 18]: 95
- Plant response rating, Ryegrass, Italian [12, 19]: 95
- Plant response rating, Ryegrass, Italian [12, 21]: 90
- Plant response rating, Ryegrass, Italian [12, 22]: 95
- Plant response rating, Ryegrass, Italian [12, 23]: 95
- Ryegrass, Italian plant response rating [12, 24]: 95
- Ryegrass, Italian plant response rating [12, 20]: 90
- Soybean plant response rating [13, 17]: 15
- Plant response rating, Soybean [13, 18]: 40
- Plant response rating, Soybean [13, 19]: 50
- Plant response rating, Soybean [13, 21]: 0
- Plant response rating, Soybean [13, 22]: 45
- Plant response rating, Soybean [13, 23]: 65
- Soybean plant response rating [13, 24]: 75
- Soybean plant response rating [13, 20]: 20
- Lambsquarters plant response rating [14, 17]: 85
- Plant response rating, Lambsquarters [14, 18]: 95
- Plant response rating, Lambsquarters [14, 19]: 100
- Plant response rating, Lambsquarters [14, 21]: 80
- Plant response rating, Lambsquarters [14, 22]: 85
- Plant response rating, Lambsquarters [14, 23]: 95
- Lambsquarters plant response rating [14, 24]: 90
- Lambsquarters plant response rating [14, 20]: 90
- Corn plant response rating [15, 17]: 10
- Plant response rating, Corn [15, 18]: 30
- Plant response rating, Corn [15, 19]: 35
- Plant response rating, Corn [15, 21]: 0
- Plant response rating, Corn [15, 22]: 10
- Plant response rating, Corn [15, 23]: 30
- Corn plant response rating [15, 24]: 45
- Corn plant response rating [15, 20]: 25
- Oilseed Rape plant response rating [16, 17]: 5
- Plant response rating, Oilseed Rape [16, 18]: 85
- Plant response rating, Oilseed Rape [16, 19]: 80
- Plant response rating, Oilseed Rape [16, 21]: 30
- Plant response rating, Oilseed Rape [16, 22]: 85
- Plant response rating, Oilseed Rape [16, 23]: 90
- Oilseed Rape plant response rating [16, 24]: 90
- Oilseed Rape plant response rating [16, 20]: 5

SMILES: Cc1nn(C)c(=O)c(-c2c(C)sc3ccccc23)c1O [Compound 65]
- Oat, Wild plant response rating [1, 17]: 25
- Plant response rating, Oat, Wild [1, 18]: 50
- Plant response rating, Oat, Wild [1, 19]: 70
- Oat, Wild plant response rating [1, 20]: 35
- Kochia plant response rating [2, 17]: 90
- Plant response rating, Kochia [2, 18]: 90
- Plant response rating, Kochia [2, 19]: 100
- Kochia plant response rating [2, 20]: 90
- Crabgrass, Large plant response rating [3, 17]: 5
- Plant response rating, Crabgrass, Large [3, 18]: 20
- Plant response rating, Crabgrass, Large [3, 19]: 25
- Crabgrass, Large plant response rating [3, 20]: 20
- Waterhemp plant response rating [4, 17]: 60
- Plant response rating, Waterhemp [4, 18]: 75
- Plant response rating, Waterhemp [4, 19]: 85
- Waterhemp plant response rating [4, 20]: 75
- Johnsongrass plant response rating [5, 17]: 5
- Plant response rating, Johnsongrass [5, 18]: 5
- Plant response rating, Johnsongrass [5, 19]: 5
- Johnsongrass plant response rating [5, 20]: 5
- Ragweed plant response rating [6, 17]: 55
- Plant response rating, Ragweed [6, 18]: 80
- Plant response rating, Ragweed [6, 19]: 90
- Ragweed plant response rating [6, 20]: 85
- Velvetleaf plant response rating [7, 17]: 10
- Plant response rating, Velvetleaf [7, 18]: 65
- Plant response rating, Velvetleaf [7, 19]: 75
- Velvetleaf plant response rating [7, 20]: 20
- Pigweed plant response rating [8, 17]: 90
- Plant response rating, Pigweed [8, 18]: 98
- Plant response rating, Pigweed [8, 19]: 100
- Pigweed plant response rating [8, 20]: 90
- Foxtail, Giant plant response rating [9, 17]: 10
- Plant response rating, Foxtail, Giant [9, 18]: 35
- Plant response rating, Foxtail, Giant [9, 19]: 60
- Foxtail, Giant plant response rating [9, 20]: 20
- Morningglory plant response rating [10, 17]: 75
- Plant response rating, Morningglory [10, 18]: 95
- Plant response rating, Morningglory [10, 19]: 95
- Morningglory plant response rating [10, 20]: 85
- Blackgrass plant response rating [11, 17]: 5
- Plant response rating, Blackgrass [11, 18]: 10
- Plant response rating, Blackgrass [11, 19]: 40
- Blackgrass plant response rating [11, 20]: 5
- Ryegrass, Italian plant response rating [12, 17]: 65
- Plant response rating, Ryegrass, Italian [12, 18]: 85
- Plant response rating, Ryegrass, Italian [12, 19]: 85
- Ryegrass, Italian plant response rating [12, 20]: 80
- Soybean plant response rating [13, 17]: 5
- Plant response rating, Soybean [13, 18]: 5
- Plant response rating, Soybean [13, 19]: 10
- Soybean plant response rating [13, 20]: 5
- Lambsquarters plant response rating [14, 17]: 90
- Plant response rating, Lambsquarters [14, 18]: 95
- Plant response rating, Lambsquarters [14, 19]: 100
- Lambsquarters plant response rating [14, 20]: 95
- Corn plant response rating [15, 17]: 5
- Plant response rating, Corn [15, 18]: 5
- Plant response rating, Corn [15, 19]: 5
- Corn plant response rating [15, 20]: 5
- Oilseed Rape plant response rating [16, 17]: 0
- Plant response rating, Oilseed Rape [16, 18]: 0
- Plant response rating, Oilseed Rape [16, 19]: 5
- Oilseed Rape plant response rating [16, 20]: 0

— US10597388B2, “Pyridazinone herbicides” (FMC CORPORATION, priority 2014, dated 2020)
